In the experiment the test system is male MC-3R^−/− and WT mice. The experiment is described as follows: Peripheral MTII administration: 24-h food consumption. The settings on record: single intraperitoneal injection, 10 mg/kg, n=9, P<0.05.

Protocol: Peripheral MTII administration—For seven consecutive days, individually-housed 23-25-week-old male MC-3R^−/− (n=9) and WT (n=9) mice received an intraperitoneal (ip) injection of a sterile 0.9% NaCl vehicle solution approximately 30 min before the onset of the dark phase of the light cycle. At the same time on the eighth consecutive day of the study, mice received an ip injection of MTII at a dose of 10 mg/kg delivered in vehicle. Body and food (Teklad 7012) weights were measured and recorded daily approximately 15 min prior to injection.

Turning to MTII, the “reduction of food consumption over a 24-h period relative to a 2-day vehicle treatment baseline” value (MC-3R^−/− male mice) is listed as 16.9±7.0% and the “reduction of food consumption over a 24-h period relative to a 2-day vehicle treatment baseline” value (WT male mice) is recorded as 11.1±4.3%.

For the origin of these results see US6639123B1, “Melanocortin-3 receptor deficient cells, non-human trangenic animals and methods of selecting compounds which regulate body weight” (Merck & Co., Inc., priority 1999, dated 2003).
